Biological target: T1, lymphostatin (LifA; rLifA) (Escherichia coli, UniProt B7UI23)
T1 construct: gene E2348C_3234; full-length, C-terminal His6 tag kept, expressed in E. cloni (E. coli K-12) from pRham; 3229 residues as printed, 365 kDa, monomer
Assay: intrinsic tryptophan fluorescence titration (ex […] nm, em […] nm)
Assay type: binding

Question: `CC(=O)N[C@H]1[C@@H](OP(=O)(O)OP(=O)(O)OC[C@H]2O[C@@H](n3ccc(=O)[nH]c3=O)[C@H](O)[C@@H]2O)O[C@H](CO)[C@@H](O)[C@@H]1O` [UDP-GlcNAc] was tested. Which Kd did it give?
Answer: The Kd was 120 ± 30 µM.

Source: paper PMC4786716, “Biophysical Characterization and Activity of Lymphostatin, a Multifunctional Virulence Factor of Attaching and Effacing Escherichia coli” (The Journal of Biological Chemistry, 2016)
